From paper PMC10247784, “Physiological activation of human and mouse bitter taste receptors by bile acids” (Communications Biology, 2023)

Test system: HEK293T-Gα16gust44 cells transfected with empty vector (mock)
Experiment: Calcium imaging assay (FLIPR), empty vector control (mock)
Assay type: cell-based
Experimental: This set of bile acids was chosen because of their commercial availability in high purities, their diversity within the class of bile acids and their previous detection and quantitation in human blood. Stock solutions were prepared in DMSO.
As basal growth medium for the HEK293T-Gα16gust44 cell line[17],[59] served Dulbecco’s modified eagle medium (DMEM) (Thermo Fisher Scientific, Darmstadt, Germany) supplemented with 10 % fetal bovine serum (Sigma-Aldrich, Steinheim, Germany), 2 mM L-glutamine (Sigma-Aldrich, Steinheim, Germany), 100 units/ml penicillin (Sigma Aldrich, Steinheim, Germany) and 100 µg/ml streptomycin (Sigma Aldrich, Steinheim, Germany). Growth conditions were 37 °C, 5 % CO2 and saturated air-humidity[60].
HEK293T-Gα16gust44 cells were seeded on poly-D-lysine (10 µg/ml) coated 96-well plates to reach a confluence of 40-60 % the next day. For transient transfection 150 ng of plasmid DNA containing the receptor of interest and 0.3 µl lipofectamine 2000 (Thermo Fisher Scientific, Darmstadt, Germany) per well were used and transfection took place according to the manual of lipofectamine 2000. […] The empty vector DNA (mock) was transfected as negative control[14],[41].
Cells were loaded using the calcium-sensitive fluorescent dye Fluo-4-AM (Abcam, Cambridge, Great Britain) in the presence of 2.5 mM probenecid (Sigma-Aldrich, Steinheim, Germany) the day after transfection[13],[41]. 1 h after loading, cells were washed with C1 buffer using a BioTek Cell Washer, incubated in the dark for half an hour and washed again. For automated agonist application and measurement of fluorescence changes, a FLIPR^TETRA device (Molecular Devices, San José, United States) was used. Viability of cells was tested by application of 100 nM Somatostatin 14 (Bachem, Bubendorf, Switzerland)[42].
Measured data were negative control corrected by subtracting the signal of the mock-transfected cells and exported to Microsoft Excel using the FLIPR software ScreenWorks 4.2. In Microsoft Excel software, standardization of maximum fluorescence intensities to the basal fluorescence and normalization to the buffer-only control was done to calculate the relative fluorescence changes (ΔF/F).
Initial screening experiments performed in duplicate wells were confirmed by at least one replication and representative traces were selected for display. All dose-response relationships were determined by three independent experiments (biological replicates) performed in duplicates (technical replicates). Threshold concentrations, defined as lowest substance concentrations leading to statistically significant elevated fluorescence changes in receptor-transfected cells compared with empty vector-transfected cells, were determined using SigmaPlot with Student’s t-test to evaluate statistical significance (p < 0.01).

[1] = Mock (sheet Tas2r123), conc. 0,01 mM
[2] = Mock (sheet Tas2r123), conc. 0,03 mM
[3] = Mock (sheet Tas2r123), conc. 0,001 mM
[4] = Mock (sheet Tas2r123), conc. 0,003 mM
[5] = Mock (sheet Tas2r144), conc. 0,01 mM
[6] = Mock (sheet Tas2r144), conc. 0,1 mM
[7] = Mock (sheet Tas2r144), conc. 0,03 mM
[8] = Mock (sheet Tas2r144), conc. 0,003 mM
[9] = Mock, sheet TAS2R4, conc. 0,01 mM
[10] = Mock, sheet TAS2R4, conc. 0,1 mM
[11] = Mock, sheet TAS2R4, conc. 0,03 mM
[12] = Mock, sheet TAS2R4, conc. 0,001 mM
[13] = Mock, sheet TAS2R4, conc. 0,003 mM
[14] = Mock, sheet TAS2R14, conc. 0,01 mM
[15] = Mock, sheet TAS2R14, conc. 0,001 mM
[16] = Mock, sheet TAS2R14, conc. 0,003 mM
[17] = Mock, sheet TAS2R46, conc. 0,01 mM
[18] = Mock, sheet TAS2R46, conc. 0,1 mM
[19] = Mock, sheet TAS2R46, conc. 0,03 mM
[20] = Mock, sheet TAS2R46, conc. 0,001 mM
[21] = Mock, sheet TAS2R46, conc. 0,003 mM
[22] = Mock, sheet Tas2r108, conc. 0,01 mM
[23] = Mock, sheet Tas2r108, conc. 0,1 mM
[24] = Mock, sheet Tas2r108, conc. 0,03 mM
[25] = Mock, sheet Tas2r108, conc. 0,001 mM
[26] = Mock, sheet Tas2r108, conc. 0,003 mM
[27] = conc. 0,01 mM, Mock (sheet TAS2R1)
[28] = conc. 0,03 mM, Mock (sheet TAS2R1)
[29] = conc. 0,001 mM, Mock (sheet TAS2R1)
[30] = conc. 0,003 mM, Mock (sheet TAS2R1)
[31] = Mock, sheet TAS2R4, conc. 0,00003 mM
[32] = Mock, sheet TAS2R4, conc. 0,0001 mM
[33] = Mock, sheet TAS2R4, conc. 0,0003 mM
[34] = conc. 0,0001 mM, Mock (sheet TAS2R1)
[35] = conc. 0,0003 mM, Mock (sheet TAS2R1)

## C[C@H](CCC(=O)NCCS(=O)(=O)O)[C@H]1CC[C@H]2[C@@H]3[C@H](O)C[C@@H]4C[C@H](O)CC[C@]4(C)[C@H]3C[C@H](O)[C@]12C [Taurocholic Acid, taurocholic acid]
Conc. 0,01 mM, Mock (sheet TAS2R39)
  Δ F/F: -0.01563
Conc. 0,1 mM, Mock (sheet TAS2R39)
  Δ F/F: -0.02822
Conc. 0,03 mM, Mock (sheet TAS2R39)
  Δ F/F: -0.0235
Conc. 0,3 mM, Mock (sheet TAS2R39)
  Δ F/F: -0.04268
Conc. 0,001 mM, Mock (sheet TAS2R39)
  Δ F/F: -0.0133
Conc. 1 mM, Mock (sheet TAS2R39)
  Δ F/F: -0.07998
Conc. 0,003 mM, Mock (sheet TAS2R39)
  Δ F/F: -0.01654
[1]
  Δ F/F: -0.001211
Mock (sheet Tas2r123), conc. 0,1 mM
  Δ F/F: -8.418e-5
[2]
  Δ F/F: -0.0003225
Mock (sheet Tas2r123), conc. 0,3 mM
  Δ F/F: -0.001149
[3]
  Δ F/F: -0.001993
[4]
  Δ F/F: -0.001321
[5]
  Δ F/F: 0.001108
[6]
  Δ F/F: 0.003486
[7]
  Δ F/F: 0.0001367
Mock (sheet Tas2r144), conc. 0,3 mM
  Δ F/F: -0.000351
[8]
  Δ F/F: -0.001298
[9]
  Δ F/F: -0.0002235
[10]
  Δ F/F: -0.0008729
[11]
  Δ F/F: 6.044e-5
Mock, sheet TAS2R4, conc. 0,3 mM
  Δ F/F: 0.0004439
[12]
  Δ F/F: -0.0007938
[13]
  Δ F/F: -0.0007144
[14]
  Δ F/F: -0.01747
Mock, sheet TAS2R14, conc. 0,1 mM
  Δ F/F: -0.02159
Mock, sheet TAS2R14, conc. 0,03 mM
  Δ F/F: -0.01682
Mock, sheet TAS2R14, conc. 0,3 mM
  Δ F/F: -0.04976
[15]
  Δ F/F: -0.01145
Mock, sheet TAS2R14, conc. 1 mM
  Δ F/F: -0.08511
[16]
  Δ F/F: -0.01455
[17]
  Δ F/F: -0.0238
[18]
  Δ F/F: -0.03213
[19]
  Δ F/F: -0.02754
Mock, sheet TAS2R46, conc. 0,3 mM
  Δ F/F: -0.04297
[20]
  Δ F/F: -0.01362
Mock, sheet TAS2R46, conc. 1 mM
  Δ F/F: -0.07821
[21]
  Δ F/F: -0.02261
[22]
  Δ F/F: -0.02048
[23]
  Δ F/F: -0.02439
[24]
  Δ F/F: -0.01669
Mock, sheet Tas2r108, conc. 0,3 mM
  Δ F/F: -0.04405
[25]
  Δ F/F: -0.01481
Mock, sheet Tas2r108, conc. 1 mM
  Δ F/F: -0.07176
[26]
  Δ F/F: -0.01975
Mock, sheet Tas2r117, conc. 0,01 mM
  Δ F/F: 0.0004005
Mock, sheet Tas2r117, conc. 0,1 mM
  Δ F/F: 0.0008049
Mock, sheet Tas2r117, conc. 0,03 mM
  Δ F/F: 0.000104
Mock, sheet Tas2r117, conc. 0,3 mM
  Δ F/F: -0.0008737
Mock, sheet Tas2r117, conc. 0,0003 mM
  Δ F/F: -0.0001935
Mock, sheet Tas2r117, conc. 0,001 mM
  Δ F/F: -0.001035
Mock, sheet Tas2r117, conc. 0,003 mM
  Δ F/F: -0.0005321
[27]
  Δ F/F: -0.002439
conc. 0,1 mM, Mock (sheet TAS2R1)
  Δ F/F: -0.002601
[28]
  Δ F/F: -0.002464
conc. 0,3 mM, Mock (sheet TAS2R1)
  Δ F/F: -0.001298
[29]
  Δ F/F: -0.001546
[30]
  Δ F/F: -0.002596

## C[C@H](CCC(=O)NCCS(=O)(=O)O)[C@H]1CC[C@H]2[C@@H]3CC[C@@H]4C[C@H](O)CC[C@]4(C)[C@H]3CC[C@]12C [Taurolithocholic Acid, taurolithocholic acid]
[5]
  Δ F/F: 0.0005692
[6]
  Δ F/F: 0.004595
[7]
  Δ F/F: 0.0003601
Mock (sheet Tas2r144), conc. 0,00003 mM
  Δ F/F: 0.006114
Mock (sheet Tas2r144), conc. 0,0001 mM
  Δ F/F: 0.006504
Mock (sheet Tas2r144), conc. 0,0003 mM
  Δ F/F: 0.0008548
Mock (sheet Tas2r144), conc. 0,001 mM
  Δ F/F: 0.004624
[8]
  Δ F/F: 0.001997
[9]
  Δ F/F: -0.008514
[10]
  Δ F/F: -0.00794
[11]
  Δ F/F: -0.01099
Mock, sheet TAS2R4, conc. 0,000001 mM
  Δ F/F: -0.003137
Mock, sheet TAS2R4, conc. 0,000003 mM
  Δ F/F: -0.007155
Mock, sheet TAS2R4, conc. 0,00001 mM
  Δ F/F: -0.00504
[31]
  Δ F/F: -0.003977
[32]
  Δ F/F: -0.003234
[33]
  Δ F/F: -0.004056
[12]
  Δ F/F: -0.007019
[14]
  Δ F/F: -0.03147
Mock, sheet TAS2R14, conc. 0,00001 mM
  Δ F/F: -0.004277
Mock, sheet TAS2R14, conc. 0,00003 mM
  Δ F/F: -0.0006944
Mock, sheet TAS2R14, conc. 0,0001 mM
  Δ F/F: -0.01329
Mock, sheet TAS2R14, conc. 0,0003 mM
  Δ F/F: -0.01832
[15]
  Δ F/F: -0.01976
[16]
  Δ F/F: -0.0246
[17]
  Δ F/F: -0.02971
[18]
  Δ F/F: -0.009753
[19]
  Δ F/F: -0.03052
Mock, sheet TAS2R46, conc. 0,0001 mM
  Δ F/F: -0.0128
Mock, sheet TAS2R46, conc. 0,0003 mM
  Δ F/F: -0.01683
[20]
  Δ F/F: -0.02076
[21]
  Δ F/F: -0.0306
[22]
  Δ F/F: -0.02695
[23]
  Δ F/F: -0.01465
[24]
  Δ F/F: -0.03132
Mock, sheet Tas2r108, conc. 0,00001 mM
  Δ F/F: -0.01948
Mock, sheet Tas2r108, conc. 0,00003 mM
  Δ F/F: -0.01658
Mock, sheet Tas2r108, conc. 0,0001 mM
  Δ F/F: -0.01596
Mock, sheet Tas2r108, conc. 0,0003 mM
  Δ F/F: -0.01689
[25]
  Δ F/F: -0.02887
[26]
  Δ F/F: -0.03792
[27]
  Δ F/F: 0.0009651
[28]
  Δ F/F: -0.0002852
conc. 0,000001 mM, Mock (sheet TAS2R1)
  Δ F/F: 0.0003466
conc. 0,000003 mM, Mock (sheet TAS2R1)
  Δ F/F: 0.0002774
conc. 0,00001 mM, Mock (sheet TAS2R1)
  Δ F/F: -0.0001438
conc. 0,00003 mM, Mock (sheet TAS2R1)
  Δ F/F: 0.0007699
[34]
  Δ F/F: -0.00173
[35]
  Δ F/F: 0.00111
[29]
  Δ F/F: 0.001414
[30]
  Δ F/F: -0.000959

## C[C@H](CCC(=O)O)[C@H]1CC[C@H]2[C@@H]3[C@@H](O)C[C@@H]4C[C@H](O)CC[C@]4(C)[C@H]3CC[C@]12C [Ursodeoxycholic Acid, ursodeoxycholic acid]
[1]
  Δ F/F: -0.001066
[2]
  Δ F/F: -0.001504
Mock (sheet Tas2r123), conc. 0,0001 mM
  Δ F/F: -0.001573
Mock (sheet Tas2r123), conc. 0,0003 mM
  Δ F/F: -0.001292
[3]
  Δ F/F: -0.005211
[4]
  Δ F/F: -0.001793
[9]
  Δ F/F: -0.0004613
[11]
  Δ F/F: -0.0005491
[31]
  Δ F/F: -0.0004806
[32]
  Δ F/F: -0.001738
[33]
  Δ F/F: 0.0005593
[12]
  Δ F/F: -0.001147
[13]
  Δ F/F: -0.0007234
[27]
  Δ F/F: 0.000483
[28]
  Δ F/F: -0.001233
[34]
  Δ F/F: 0.0008084
[35]
  Δ F/F: -0.0004379
[29]
  Δ F/F: -0.001051
[30]
  Δ F/F: -0.001084
